Our source for the Kd values is paper PMC3815476 (Biochemistry, 2013).

The assay addresses Shp (Streptococcus pyogenes, UniProt Q06A48, M66A). As to the kind of experiment: biochemical.

Molecules are shown by their SMILES.

`c1c[nH]cn1` [imidazole] gave a Kd of 210 ± 11 µM.
